Earlier results as cited in patent publication US7399639B2, “Sensors, and methods of making and using the same” (Massachusetts Institute of Technology, priority 2003, dated 2008).

Key:
[1] = reported elsewhere; cited from earlier work
[2] = reported elsewhere, cited from earlier work
[3] = reported elsewhere; cited from earlier work; remark: listed apart in the source
[4] = reported elsewhere; cited from earlier work; remark: listed apart in the source

Structure (SMILES): O=C(O)c1ccccc1-c1c2cc(Cl)c(=O)cc-2oc2c(CNc3ccccc3CN(Cc3ccccn3)Cc3ccccn3)c(O)ccc12 [Zinpyr-4]
- increase in integrated emission in response to the dual-metal buffering system [1]: ~5 fold
- quantum efficiency ([2]; metal-free): 0.05
- increase in brightness upon Zn(II) binding [2]: 6.7 fold
- quantum efficiency of Zn(II) complex [2]: 0.34
- metal ion selectivity [3]: Zn(II) and Cd(II) selective
- pKa of the aniline nitrogen [4]: 7.2
